Where a name gives a salt, the structure may show the parent alone.
A melting point of 170 to 171 °C was found for `CCC(CC)(NC(=O)c1cnn2c1NC(c1ccccc1)CC2(C)C)c1ccc(OCCCC(=O)O)cc1` (centres unmarked) [Example 771, 4-(4-(1-(((7,7-dimethyl-5-phenyl-4,5,6,7-tetrahydropyrazolo[1,5-a]pyrimidin-3-yl)carbonyl)amino)-1-ethyl-propyl)phenoxy)butanoic acid] in this work. A melting point of 230 to 231 °C was found for `O=C(NC12CC3CC(CC(C3)C1)C2)c1cnn2c1NC(c1ccco1)CC2C(F)(F)F` (centres unmarked) [Example 270, N-(1-adamantyl)-5-(2-furyl)-7-(trifluoromethyl)-4,5,6,7-tetrahydropyrazolo[1,5-a]pyrimidine-3-carboxamide] in this work. A melting point of 140 to 141 °C was found for `CCC(CC)(NC(=O)c1c(C)nn2c1NC(c1ccccc1)CC2(C)C)c1ccc(N(C)C)cc1` (centres unmarked) (as salt: HCl) [Example 821, N-(1-(4-(dimethylamino)phenyl)-1-ethylpropyl)-2,7,7-trimethyl-5-phenyl-4,5,6,7-tetrahydropyrazolo[1,5-a]pyrimidine-3-carboxamide] in this work. A melting point of 250 to 252 °C was found for `CCC1(CC)C[C@@H](O)CN1C(=O)c1cnn2c1N[C@@H](c1ccccc1)CC2(C)C` [Example 1115, (3R)-1-(((5R)-7,7-dimethyl-5-phenyl-4,5,6,7-tetrahydropyrazolo[1,5-a]pyrimidin-3-yl)carbonyl)-5,5-diethyl-3-pyrrolidinol] in this work. A melting point of 149 to 150 °C was found for `CCC(CC)(NC(=O)c1c(C)nn2c1NC(c1cccs1)CC2(C)C)c1ccc(C)cc1` (centres unmarked) (as salt: HCl) [Example 956, N-(1-ethyl-1-(4-methylphenyl)propyl)-2,7,7-trimethyl-5-(2-thienyl)-4,5,6,7-tetrahydropyrazolo[1,5-a]pyrimidine-3-carboxamide] in this work. A melting point of 158 to 160 °C was found for `O=C(O)c1cnn2c1NC(c1ccccc1)C1CCCCC12` (centres unmarked) [Example 39, 5-phenyl-4,5,5a,6,7,8,9,9a-octahydropyrazolo[1,5-a]quinazoline-3-carboxylic acid] in this work. A melting point of 156 to 157 °C was found for `O=C(O)c1cnn2c1NC(c1ccco1)CC2C(F)(F)F` (centres unmarked) [Example 29, 5-(2-furyl)-7-(trifluoromethyl)-4,5,6,7-tetrahydropyrazolo[1,5-a]pyrimidine-3-carboxylic acid] in this work. A melting point of 178 to 179 °C was found for `CCC(CC)(NC(=O)c1cnn2c1NC(c1ccccc1)CC2(C)C)c1ccc(CO)cc1` (centres unmarked) [Example 739, N-(1-ethyl-1-(4-(hydroxymethyl)phenyl)propyl)-7,7-dimethyl-5-phenyl-4,5,6,7-tetrahydropyrazolo[1,5-a]pyrimidine-3-carboxamide] in this work. A melting point of 200 to 202 °C was found for `CCC(CC)(NC(=O)c1c(C)nn2c1NC(c1ccccc1)CC2(C)C)c1ccc(C(C)=O)cc1` (centres unmarked) [Example 977, N-(1-(4-acetylphenyl)-1-ethylpropyl)-2,7,7-trimethyl-5-phenyl-4,5,6,7-tetrahydropyrazolo[1,5-a]pyrimidine-3-carboxamide] in this work. A melting point of 257 to 258 °C was found for `CCC(CC)(NC(=O)c1cnn2c1NC(c1ccccc1)CC2(C)C)c1ccc(C(=O)O)cc1` (centres unmarked) [Example 734, 4-(1-(((7,7-dimethyl-5-phenyl-4,5,6,7-tetrahydropyrazolo[1,5-a]pyrimidin-3-yl)carbonyl)amino)-1-ethylpropyl)benzoic acid] in this work. A melting point of 168 to 169 °C was found for `CCC(CC)(NC(=O)c1c(C)nn2c1N[C@@H](c1ccccc1)CC2(C)C)c1ccc(CO)cc1` (as salt: HCl) [Example 1075, (5R)-N-(1-ethyl-1-(4-(hydroxymethyl)phenyl)propyl)-2,7,7-trimethyl-5-phenyl-4,5,6,7-tetrahydropyrazolo[1,5-a]pyrimidine-3-carboxamide] in this work. A melting point of 129 to 130 °C was found for `CCC(CC)(CCOC)NC(=O)c1cnn2c1NC(c1ccccc1)CC2(C)C` (centres unmarked) [Example 664, N-(1,1-diethyl-3-methoxypropyl)-7,7-dimethyl-5-phenyl-4,5,6,7-tetrahydropyrazolo[1,5-a]pyrimidine-3-carboxamide] in this work. A melting point of 151 to 152 °C was found for `CCC(CC)(NC(=O)c1cnn2c1N[C@@H](c1ccccc1)CC2(C)C)c1ccc(SC)cc1` [Example 1067, (5R)-N-(1-ethyl-1-(4-(methylthio)phenyl)propyl)-7,7-dimethyl-5-phenyl-4,5,6,7-tetrahydropyrazolo[1,5-a]pyrimidine-3-carboxamide] in this work. A melting point of 246 to 247 °C was found for `O=C(NC12CC3CC(CC(C3)C1)C2)c1cnn2c1NC(c1cccc(Cl)c1)CC2C(F)(F)F` (centres unmarked) [Example 282, N-(1-adamantyl)-5-(3-chlorophenyl)-7-(trifluoromethyl)-4,5,6,7-tetrahydropyrazolo[1,5-a]pyrimidine-3-carboxamide] in this work. A melting point of 180 to 181 °C was found for `CCC(C#N)NC(=O)c1cnn2c1N[C@H](c1ccccc1)C[C@@H]2C(F)(F)F` (stereo in doubt) [Example 283, N-(1-cyanopropyl)-5-phenyl-7-(trifluoromethyl)-4,5,6,7-tetrahydropyrazolo[1,5-a]pyrimidine-3-carboxamide] in this work. A melting point of 186 to 187 °C was found for `Cc1nn2c(c1C(=O)O)NC(c1cccs1)CC2(C)C` (centres unmarked) [Example 951, 2,7,7-trimethyl-5-(2-thienyl)-4,5,6,7-tetrahydropyrazolo[1,5-a]pyrimidine-3-carboxylic acid] in this work. A melting point of 104 to 105 °C was found for `CCC1(NC(=O)c2cnn3c2NC(c2ccccc2)CC3(C)C)CCOCC1` (centres unmarked) [Example 582, N-(4-ethyltetrahydro-2H-pyran-4-yl)-7,7-dimethyl-5-phenyl-4,5,6,7-tetrahydropyrazolo[1,5-a]pyrimidine-3-carboxamide] in this work. A melting point of 150 to 151 °C was found for `CCC(CC)(NC(=O)c1cnn2c1NC(c1ccc(C)cc1C)CC2(C)C)c1ccc(C)cc1` (centres unmarked) (as salt: HCl) [Example 970, 5-(2,4-dimethylphenyl)-N-(1-ethyl-1-(4-methylphenyl)propyl)-7,7-dimethyl-4,5,6,7-tetrahydropyrazolo[1,5-a]pyrimidine-3-carboxamide] in this work. A melting point of 155 to 156 °C was found for `CCC1(NC(=O)c2cnn3c2NC(c2ccccc2)CC3(C)C)CCS(=O)(=O)CC1` (centres unmarked) [Example 617, N-(4-ethyl-1,1-dioxidotetrahydro-2H-thiopyran-4-yl)-7,7-dimethyl-5-phenyl-4,5,6,7-tetrahydropyrazolo[1,5-a]pyrimidine-3-carboxamide] in this work. A melting point of 203 to 204 °C was found for `CCC(CC)(NC(=O)c1c(C)nn2c1N[C@H](c1ccccc1F)CC2(C)C)c1ccc(C)cc1` (as salt: HCl) [Example 1083, (5S)-N-(1-ethyl-1-(4-methylphenyl)propyl)-5-(2-fluorophenyl)-2,7,7-trimethyl-4,5,6,7-tetrahydropyrazolo[1,5-a]pyrimidine-3-carboxamide] in this work. A melting point of 171 to 172 °C was found for `CCC(CC)(NC(=O)c1cnn2c1NC(c1ccccc1)CC2(C)C)c1ccc(OC(C)=O)cc1` (centres unmarked) [Example 728, 4-(1-(((7,7-dimethyl-5-phenyl-4,5,6,7-tetrahydropyrazolo[1,5-a]pyrimidin-3-yl)carbonyl)amino)-1-ethylpropyl)phenyl acetate] in this work. A melting point of 163.5 to 163.6 °C was found for `CCC(CC)(NC(=O)c1cnn2c1NC(c1ncc(C)s1)CC2(C)C)c1ccc(F)cc1` (centres unmarked) [Example 602, N-(1-ethyl-1-(4-fluorophenyl)propyl)-7,7-dimethyl-5-(5-methyl-1,3-thiazol-2-yl)-4,5,6,7-tetrahydropyrazolo[1,5-a]pyrimidine-3-carboxamide] in this work. A melting point of 167 to 168 °C was found for `CCC(CC)(NC(=O)c1cnn2c1NC(c1ccccc1)CC2(C)C)c1ccc(-c2ccco2)cc1` (centres unmarked) [Example 584, N-(1-ethyl-1-(4-(2-furyl)phenyl)propyl)-7,7-dimethyl-5-phenyl-4,5,6,7-tetrahydropyrazolo[1,5-a]pyrimidine-3-carboxamide] in this work. A melting point of 247 to 249 °C was found for `CCC1(CC)C[C@H](O)CN1C(=O)c1cnn2c1N[C@@H](c1ccccc1)CC2(C)C` (as salt: HCl) [Example 1118, (3S)-1-(((5R)-7,7-dimethyl-5-phenyl-4,5,6,7-tetrahydropyrazolo[1,5-a]pyrimidin-3-yl)carbonyl)-5,5-diethyl-3-pyrrolidinol] in this work. A melting point of 204 to 205 °C was found for `CCC(NC(=O)c1cnn2c1NC(c1ccccc1)CC2C(F)(F)F)c1ccccc1F` (centres unmarked) [Example 400, N-(1-(2-fluorophenyl)propyl)-5-phenyl-7-(trifluoromethyl)-4,5,6,7-tetrahydropyrazolo[1,5-a]pyrimidine-3-carboxamide] in this work. A melting point of 162 to 163 °C was found for `Cc1nn2c(c1C(=O)NC13CC4CC(CC(C4)C1)C3)NC(c1ccccc1)CC2C(F)(F)F` (centres unmarked) [Example 42] in this work. A melting point of 211 to 212 °C was found for `COc1cccc(C2CC(C(F)(F)F)n3ncc(C(=O)NC45CC6CC(CC(C6)C4)C5)c3N2)c1` (centres unmarked) [Example 280, N-(1-adamantyl)-5-(3-methoxyphenyl)-7-(trifluoromethyl)-4,5,6,7-tetrahydropyrazolo[1,5-a]pyrimidine-3-carboxamide] in this work. A melting point of 237 to 238 °C was found for `CCC(CC)(NC(=O)c1cnn2c1NC(c1ccccc1)CC2(C)C)c1ccc(C#N)cc1` (centres unmarked) [Example 574, N-(1-(4-cyanophenyl)-1-ethylpropyl)-7,7-dimethyl-5-phenyl-4,5,6,7-tetrahydropyrazolo[1,5-a]pyrimidine-3-carboxamide] in this work. A melting point of 178 to 179 °C was found for `COc1ccc(C2CC(C)(C)n3nc(C)c(C(=O)O)c3N2)cc1` (centres unmarked) [Example 950, 5-(4-methoxyphenyl)-2,7,7-trimethyl-4,5,6,7-tetrahydropyrazolo[1,5-a]pyrimidine-3-carboxylic acid] in this work. A melting point of 152 to 155 °C was found for `CCC(CC)(NC(=O)c1c(C)nn2c1NC(c1cccc(F)c1)CC2(C)C)c1ccc(C)cc1` (centres unmarked) (as salt: HCl) [Example 972, N-(1-ethyl-1-(4-methylphenyl)propyl)-5-(3-fluorophenyl)-2,7,7-trimethyl-4,5,6,7-tetrahydropyrazolo[1,5-a]pyrimidine-3-carboxamide] in this work. A melting point of 86 °C was found for `CCOC(=O)c1cnn2c1NC(c1ccco1)CC2C(F)(F)F` (centres unmarked) [Example 14, ethyl 5-(2-furyl)-7-(trifluoromethyl)-4,5,6,7-tetrahydropyrazolo[1,5-a]pyrimidine-3-carboxylate] in this work. A melting point of 150 to 151 °C was found for `Cc1nn2c(c1C(=O)O)NC(c1ccccc1F)CC2(C)C` (single isomer, unassigned; (+)) [Example 1024, (+)-5-(2-fluorophenyl)-2,7,7-trimethyl-4,5,6,7-tetrahydropyrazolo[1,5-a]pyrimidine-3-carboxylic acid] in this work.
